Reference: patent publication US20120094985A1, “PHARMACEUTICAL COMPOSITIONS COMPRISING CHLOROPHENYL PIPERAZINE DERIVED COMPOUNDS AND USE OF THE COMPOUNDS IN PRODUCING MEDICAMENTS” (KAOHSIUNG MEDICAL UNIVERSITY, priority 2009, published 2012)

Tests used:
Male ddk mice = assay: Forced swim test (FST), mean immobility time; assay type: in vivo, mouse; conditions: for immobility period in FST: 4 mg/kg each (FIG. 2)
Description: Male ddk mice weighing between 22 and 30 g, bred in the Center Animal House facility of Kaohsiung Medical University (KMU), Taiwan, were used. These experimental animals were housed under standard laboratory conditions and maintained on natural light and dark cycle, and had free access to food and water. Animals were acclimatized to laboratory conditions before the experiment. Each animal was used only once. All the experiments were carried out between 9 a.m. and 3 p.m. The experimental protocols were approved by the Animal Center of KMU, Taiwan.
Forced swim would induce immobility of an animal to simulate the phenomenon of human depression (Renard et al., 2003) and antidepressant was used to reverse this phenomenon (Kulkarni and Mehta, 1985). This test procedure was carried out according to the previous animal model (Reddy et al., 1998).
The doses of the drugs used were selected according to the previous studies (Patil et al., 2005). Different doses were administrated intraperitoneally in a fixed volume of 1 ml/100 g body weight for 30 minutes before the animals were subjected to test.
The possible participation of the NO/cGMP pathway in the antidepressant effect of Pulmodil was investigated. Mice were pretreated with NO/cGMP pathway regulation related drugs ([…], L-arginine, methylene blue or 7-nitroindazole), and then Pulmodil or vehicle was injected to the animal. Forced swim test was performed 30 minutes later.
The possible participation of the 5-HT pathway in the antidepressant effect of Pulmodul was investigated. Mice were pretreated with 5-HT pathway related drugs (DOI, m-CPP or SB200646), and then Pulmodil or vehicle was injected to the animal. Forced swim test was performed 30 minutes later.
Results expressed as mean (sec.)±S.E.M. and the data was analyzed using One-Way or Two-Way Analysis of Variance (ANOVA) where appropriate. If any statistically significant change was found, post-hoc comparisons were performed using a Dunnett's test. Data was deemed significant when P<0.05 was considered statistically significant.

[1] = test system: cGMP concentration of mouse brain; assay: cGMP analysis of mouse brain (ELISA); assay type: in vivo; conditions: 30 minutes post injection, basal (vehicle) 0.131±0.003
Description: Male mice were given Pulmodil with intraperitoneal (i.p.) injection, where mice were divided into three groups, and 0.5, 1 and 2 mg/kg Pulmodil respectively for each group. After 30-minute injection, mice were anesthetized with […] chloral hydrate, and then were fixed on the stereotaxic frame (Narishige, Japan) to obtain mice brain. The isolated brain was homogenized and extracted with 0.1 N HCl. The extract was centrifuged at 4° C., at 14,000 rpm for 30 minutes, and supernatant was collected to determine cGMP concentration, which was determined with commercial enzyme-linked immunosorbent assay (ELISA) kit (Assay Designs) by acetylation procedure.

[2] = test system: Male ddk mice pre-treated with Reserpine; assay: Reserpine-induced forced swimming immobility; assay type: in vivo, mouse; conditions: for Reserpine-induced immobility: Reserpine 2 mg/kg pre-treatment, then 4 mg/kg, p<0.05 (FIG. 4)
Description: Male ddk mice weighing between 22 and 30 g, bred in the Center Animal House facility of Kaohsiung Medical University (KMU), Taiwan, were used. […] Animals were acclimatized to laboratory conditions before the experiment. Each animal was used only once. All the experiments were carried out between 9 a.m. and 3 p.m. […] This test procedure was carried out according to the previous animal model (Reddy et al., 1998). […] Mice were pretreated with NO/cGMP pathway regulation related drugs (Reserpine, L-arginine, methylene blue or 7-nitroindazole), and then Pulmodil or vehicle was injected to the animal. Forced swim test was performed 30 minutes later.

## COc1cc(CC(C)N)c(OC)cc1I (stereo not drawn) [DOI, 1-(2,5-dimethoxy-4-iodophenyl)-2-aminopropane, reference compound]
Male ddk mice; DOI 4 mg/kg i.p. alone (FIG. 8)
  immobility per se: did not affect the immobility

## CN(C)c1ccc2nc3ccc(=[N+](C)C)cc-3sc2c1 [Methylene blue, methylene blue, reference compound]
Male ddk mice; methylene blue 10 mg/kg i.p. alone (FIG. 6)
  immobility time per se: did not affect the immobility time

## Cl.Cn1c(=O)c2c(ncn2CCN2CCN(c3ccccc3Cl)CC2)n(C)c1=O [Pulmodil, 7-[2-[4-(2-chlorophenyl)piperazinyl]ethyl]-1,3-dimethylxanthine.acid]
Male ddk mice; 4, 8 and 16 mg/kg, compared with vehicle, p<0.05 (FIG. 1)
  immobility period in mouse FST: produced a decrease in immobility period
Male ddk mice; 7-nitroindazole 25 mg/kg i.p. for 30 minutes, then Pulmodil 8 mg/kg i.p., P<0.05 (FIG. 7)
  immobility time after 7-nitroindazole pre-treatment: shortened the immobility time
Male ddk mice; DOI 4 mg/kg i.p. for 30 minutes, then Pulmodil 4 or 8 mg/kg i.p., in comparison with FIG. 1, p<0.05 (FIG. 8)
  immobility time after DOI pre-treatment: prolonged the immobility time
Male ddk mice; L-arginine 750 mg/kg i.p. for 30 minutes, then Pulmodil 16 mg/kg i.p., compared to Pulmodil without L-arginine (FIG. 5)
  immobility period after L-arginine pre-treatment: increase in immobility period
Male ddk mice; SB200646 4 mg/kg i.p., then Pulmodil 4 or 8 mg/kg i.p., p<0.05 (FIG. 10)
  immobility time after SB200646 pre-treatment: significantly reduced this immobility time
Male ddk mice; m-CPP 4 mg/kg i.p., then Pulmodil 4 or 8 mg/kg i.p., in comparison with FIG. 1, p<0.05 (FIG. 9)
  immobility time after m-CPP pre-treatment: shortened this immobility time
Male ddk mice; methylene blue 10 mg/kg i.p. for 30 minutes, then Pulmodil 8 mg/kg i.p., p<0.05 (FIG. 6)
  immobility time after methylene blue pre-treatment: significantly decreased the immobility time
[1]; 0.5 mg/kg i.p.
  cGMP concentration in the brain: 0.201 ± 0.003 fmol/µg
[1]; 1 mg/kg i.p.
  cGMP concentration in the brain: 0.293 ± 0.023 fmol/µg
[1]; 2 mg/kg i.p.
  cGMP concentration in the brain: 0.288 ± 0.0234 fmol/µg

## COC(=O)[C@H]1[C@H]2C[C@@H]3c4[nH]c5cc(OC)ccc5c4CCN3C[C@H]2C[C@@H](OC(=O)c2cc(OC)c(OC)c(OC)c2)[C@@H]1OC [Reserpine]
[2]; Reserpine 2 mg/kg, p<0.05 (FIG. 3)
  immobility period in mouse FST, Reserpine alone: increased immobility period

## Cl.Cn1ccc2cc(NC(=O)Nc3cccnc3)ccc21 [SB200646, N-(1-methyl-1H-5-indolyl)-N′-(3-pyridinyl)urea hydrochloride, reference compound]
Male ddk mice; SB200646 4 mg/kg i.p. alone (FIG. 10)
  immobility time per se: did not affect the immobility time

## CCCc1nn(C)c2c(=O)[nH]c(-c3cc(S(=O)(=O)N4CCN(C)CC4)ccc3OCC)nc12 [Sildenafil, reference compound]
Male ddk mice
  immobility period in FST: could not significantly affect immobility time
[2]
  Reserpine-induced immobility: significantly inhibited

## O=c1n(CCCN2CCN(c3cccc(Cl)c3)CC2)nc2ccccn12 [Trazodone, reference compound]
Male ddk mice
  immobility period in FST: significantly decreased the immobility period
[2]
  Reserpine-induced immobility: significantly inhibited

## Clc1cccc(N2CCNCC2)c1 [m-CPP, meta-chlorophenylpiperazine, reference compound]
Male ddk mice; m-CPP 4 mg/kg i.p. alone, p<0.05 vs vehicle (FIG. 9)
  immobility time per se: mildly increased the immobility time

## Cn1c(=O)c2c(ncn2CCN2CCN(c3ccccc3Cl)CC2)n(C)c1=O [xanthine-based compound, 7-[2-[4-(2-chlorophenyl)piperazinyl]ethyl]-1,3-dimethylxanthine]
[2]; Reserpine 2 mg/kg for 4 hours, then 2, 3, 4 or 8 mg/kg, p<0.05 vs Reserpine (FIG. 3)
  immobility period after Reserpine pre-treatment: dose-dependently reduced the immobility period
[2]
  Reserpine-induced immobility: significantly inhibited
